Source: ChEMBL document CHEMBL1201862, “PubChem BioAssay data set” (2004)
Active and inactive are the calls of the source.

Tests used:
[1] = tested on: INS1; test: INS-1E survival protection against cytokine death – cell-based, luminescence, retest, dose response (AID 449756); type: functional; details: Rattus norvegicus;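 also: cell death triggered by IL-1 beta plus TNF-alpha plus IFN-gamma mixture; protective hits raise ATP signal compared with cytokine alone wells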
[2] = Counterscreen for activators of the function of SWI/SNF related, matrix associated, actin dependent regulator of chromatin, subfamily a, member 2 (SMARCA2, BRM): Luminescence-based cell-based high throughput dose response assay to identify non-selective compounds using the VP16 reporter assay.; type: functional
[3] = viability loss in HEK293T cells – cell-based, cherry-picks, cytotoxicity control for HIV Vif inhibitor project, dose response (AID 652208); type: functional
[4] = target: Photoreceptor-specific nuclear receptor (Homo sapiens, UniProt Q9Y5X4); type: functional, cell-based;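 also: CHO-S cells with Gal4-NCOR and VP16-NR2E3 two-hybrid luciferase reporter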
[5] = target: SWI/SNF-related matrix-associated actin-dependent regulator of chromatin subfamily A member 2 (Homo sapiens, UniProt P51531); test: Luminescence-based cell-based high throughput dose response assay to identify activators of the function of SWI/SNF related, matrix associated, actin dependent regulator of chromatin, subfamily a, member 2 (SMARCA2, BRM).; type: functional
[6] = target: T1, Methionyl-tRNA synthetase, putative (Trypanosoma brucei brucei, UniProt Q38C91); type: functional, Trypanosoma brucei brucei strain 927/4 GUTat10.1
[7] = tested on: Streptococcus sp. 'group A'; test: Streptococcus pyogenes SK(-)GAS viability under kanamycin – luminescence, BacTiterGlo, confirmation, counter-screen for streptokinase expression inhibitor project, dose response (AID 1900); type: functional, organism-based
[8] = target: T2, Heat shock factor protein 1 (Mus musculus, UniProt P38532); test: enhancement of HSF1-driven luciferase signal – cell-based, NIH3T3, luminescence, dose retest, confirmation (AID 435004); type: functional;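 also: stress induced by proteasome inhibitor MG132 added 30 min after compound; luciferase reporter driven by HSF1 response element in NIH3T3 cells; actives raise luminescence as potentiators of the MG132 stress response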
T2 sequence (P38532 whole entry): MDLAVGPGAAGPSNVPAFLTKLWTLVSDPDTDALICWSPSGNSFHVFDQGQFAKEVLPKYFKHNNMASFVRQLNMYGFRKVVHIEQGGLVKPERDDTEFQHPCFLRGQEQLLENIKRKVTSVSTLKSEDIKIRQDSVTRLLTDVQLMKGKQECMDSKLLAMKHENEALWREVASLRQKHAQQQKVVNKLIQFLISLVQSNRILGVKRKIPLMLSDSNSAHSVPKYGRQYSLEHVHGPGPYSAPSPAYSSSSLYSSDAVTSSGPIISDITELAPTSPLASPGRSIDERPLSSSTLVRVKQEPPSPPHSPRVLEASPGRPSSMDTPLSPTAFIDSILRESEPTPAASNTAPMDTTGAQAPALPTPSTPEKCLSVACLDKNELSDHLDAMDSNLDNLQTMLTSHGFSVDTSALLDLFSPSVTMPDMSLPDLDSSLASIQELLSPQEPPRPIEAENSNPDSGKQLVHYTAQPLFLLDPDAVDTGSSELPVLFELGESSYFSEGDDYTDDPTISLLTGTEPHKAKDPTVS

[9] = target: T3, Cysteine protease ATG4B (Homo sapiens, UniProt Q9Y4P1); type: functional;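 also: Fluorescence-based dose-response confirmation assay measuring inhibition of ATG4B activity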
T3 sequence (Q9Y4P1 whole entry): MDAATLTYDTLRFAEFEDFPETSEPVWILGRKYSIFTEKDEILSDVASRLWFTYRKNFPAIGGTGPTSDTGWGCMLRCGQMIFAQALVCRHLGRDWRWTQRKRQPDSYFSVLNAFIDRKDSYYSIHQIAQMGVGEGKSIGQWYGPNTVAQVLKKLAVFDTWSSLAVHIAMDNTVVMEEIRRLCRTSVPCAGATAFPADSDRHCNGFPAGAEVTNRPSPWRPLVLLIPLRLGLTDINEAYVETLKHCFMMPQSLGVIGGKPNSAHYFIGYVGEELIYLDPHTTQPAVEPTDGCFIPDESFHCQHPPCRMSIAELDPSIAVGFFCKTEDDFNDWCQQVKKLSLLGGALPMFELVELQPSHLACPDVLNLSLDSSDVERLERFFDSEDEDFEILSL

[10] = target: T1, Methionyl-tRNA synthetase, putative; type: functional, Trypanosoma brucei brucei strain 927/4 GUTat10.1; remark: listed apart in the source
[11] = Counterscreen for inhibitors of Trypanosoma brucei methionyl tRNA synthetase (MetRS): Luminescence-based cell-based high throughput dose response assay to identify compounds that are cytotoxic to Jurkat human T lymphocyte cells.; type: functional
[12] = target: T4, Streptokinase A (Streptococcus pyogenes serotype M1, UniProt P10520); test: viability-normalized secreted streptokinase activity reduction – plasminogen activation absorbance, OD405, dose response (AID 1914); type: functional, Streptococcus pyogenes M1 GAS;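 also: secreted streptokinase activity via plasminogen activation per viability signal from cell pellet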
T4 sequence (P10520 whole entry): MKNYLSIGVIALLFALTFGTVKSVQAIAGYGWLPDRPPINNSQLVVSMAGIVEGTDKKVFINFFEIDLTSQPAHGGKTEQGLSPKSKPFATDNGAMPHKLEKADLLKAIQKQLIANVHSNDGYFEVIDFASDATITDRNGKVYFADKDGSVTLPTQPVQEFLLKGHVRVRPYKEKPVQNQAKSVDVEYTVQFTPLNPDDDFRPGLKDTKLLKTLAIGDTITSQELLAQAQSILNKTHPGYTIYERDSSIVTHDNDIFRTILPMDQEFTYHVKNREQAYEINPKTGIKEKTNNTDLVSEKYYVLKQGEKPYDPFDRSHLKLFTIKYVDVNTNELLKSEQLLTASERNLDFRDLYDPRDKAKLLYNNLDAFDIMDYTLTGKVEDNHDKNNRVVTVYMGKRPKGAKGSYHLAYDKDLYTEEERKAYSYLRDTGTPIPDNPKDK

[13] = tested on: Streptococcus; test: GAS UMAA2166 growth inhibition – luminescence, BacTiterGlo, counter-screen for streptokinase expression inhibitor project, dose response (AID 1915); type: functional, organism-based;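 also: potency for reduction of bacterial viability or growth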
[14] = target: Phospholipase A2 (Homo sapiens, UniProt P04054); type: functional;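 also: confirmatory dose-response counterscreen on phospholipase A2, testing hits that came from an ultra-high-throughput screen for ATG4B inhibitors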
[15] = viability loss in THP-1 monocytes – THP-1 cells, cytotoxicity control for Vif-APOBEC3G degradation inhibitor project, dose response (AID 1117359); type: functional; details: THP-1
[16] = HIV-1 Vif–A3G interaction blockers – biochemical, TR-FRET, GST-Vif 1-94, biotin-A3G peptide, dose response retest, primary screen (AID 1117319); type: functional;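 also: TR-FRET signal of purified GST-Vif binding a biotinylated A3G peptide; inhibitors lower the FRET signal by blocking Vif and A3G binding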
[17] = target: Botulinum neurotoxin type F (Clostridium botulinum, UniProt P30996); test: High-throughput multiplex microsphere dose response for inhibitors of toxin protease, specifically Botulinum neurotoxin light chain F protease, compounds from Cherry Pick 02.; type: functional; details: read-out: EC50_MICROM
[18] = target: Arf-GAP with SH3 domain, ANK repeat and PH domain-containing protein 1 (Homo sapiens, UniProt Q9ULH1); type: functional;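 also: biochemical fluorescence polarization dose–response screen measuring inhibition of ASAP1; ASAP1 GAP domain stimulating GTP hydrolysis by truncated human ARF1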
[19] = target: T5, Small ubiquitin-related modifier 1 (Homo sapiens, UniProt P63165); test: SUMO1 protein interaction blockers, potency – biochemical, fluorescence polarization, uHTS hits, dose response (AID 624382); type: functional; details: read-out: IC50_Mean
[20] = target: ADP-ribosylation factor GTPase-activating protein 1 (Rattus norvegicus, UniProt Q62848); test: Fluorescence polarization-based biochemical high throughput dose response screening assay to identify inhibitors of ADP-ribosylation factor GTPase activating protein 1 (ARFGAP1).; type: functional
[21] = target: T5, Small ubiquitin-related modifier 1; test: SUMO1 protein-protein binding blockers, potency – biochemical, FRET, dose response (AID 624383); type: functional; details: read-out: IC50_Mean
[22] = Late-stage results from the probe development effort to identify activators of OPRM1 and OPRD1 heterodimer formation: luminescence-based cell-based dose response counterscreen assay to determine cytotoxicity of test compounds.; type: functional
[23] = target: Mu-type opioid receptor (Homo sapiens, UniProt P35372); test: (§1) Counterscreen for agonists of heterodimerization of the mu 1 (OPRM1) and delta 1 (OPRD1) opioid receptors: Luminescence-based cell-based high throughput dose response assay to identify agonists of OPRM1 homodimerization.; type: functional
[24] = target: T6, Short transient receptor potential channel 4 (Mus musculus, UniProt Q9QUQ5); test: calcium entry via TRPC4 opening agents – cell-based, HEK293 TRPC4/mu-opioid, Fluo-4 calcium, dose response (AID 434937); type: functional
T6 sequence (Q9QUQ5 whole entry): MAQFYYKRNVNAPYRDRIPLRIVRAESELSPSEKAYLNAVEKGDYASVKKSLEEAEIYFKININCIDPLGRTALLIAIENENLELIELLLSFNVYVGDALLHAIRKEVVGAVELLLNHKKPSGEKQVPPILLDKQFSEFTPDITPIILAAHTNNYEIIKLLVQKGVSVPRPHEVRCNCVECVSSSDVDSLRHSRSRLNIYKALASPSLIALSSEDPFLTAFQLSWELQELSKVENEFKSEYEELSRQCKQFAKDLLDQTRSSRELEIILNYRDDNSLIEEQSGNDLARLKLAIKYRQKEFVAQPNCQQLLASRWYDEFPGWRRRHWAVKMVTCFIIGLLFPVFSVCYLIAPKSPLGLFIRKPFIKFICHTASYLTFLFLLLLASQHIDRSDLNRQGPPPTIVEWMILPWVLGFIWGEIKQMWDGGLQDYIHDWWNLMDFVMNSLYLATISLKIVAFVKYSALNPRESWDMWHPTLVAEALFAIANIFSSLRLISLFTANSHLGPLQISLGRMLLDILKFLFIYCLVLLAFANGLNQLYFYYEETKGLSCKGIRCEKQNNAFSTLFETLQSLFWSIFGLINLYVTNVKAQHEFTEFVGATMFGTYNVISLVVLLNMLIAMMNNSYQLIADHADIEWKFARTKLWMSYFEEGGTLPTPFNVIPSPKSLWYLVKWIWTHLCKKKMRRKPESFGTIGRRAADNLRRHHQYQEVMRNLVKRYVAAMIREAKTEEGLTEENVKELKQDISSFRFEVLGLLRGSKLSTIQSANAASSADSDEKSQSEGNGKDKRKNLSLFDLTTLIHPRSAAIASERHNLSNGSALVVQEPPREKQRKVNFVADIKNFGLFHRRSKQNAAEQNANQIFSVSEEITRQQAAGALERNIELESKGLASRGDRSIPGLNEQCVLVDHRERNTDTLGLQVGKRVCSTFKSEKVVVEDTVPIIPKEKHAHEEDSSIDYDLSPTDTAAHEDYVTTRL

[25] = target: Delta-type opioid receptor (Homo sapiens, UniProt P41143); test: as §1, with “of OPRD1” for “of OPRM1”, “homodimerization. [Related pubchem assays (depositor defined):AID504326, AID504355, AID504692, AID504904, AID504905]” for “homodimerization.”; type: functional
[26] = target: 5-hydroxytryptamine receptor 5A (Homo sapiens, UniProt P47898); test: Counterscreen for agonists of OPRM1-OPRD1 heterodimerization: luminescence-based cell-based high throughput dose response assay to identify agonists of 5-hydroxytryptamine (serotonin) 5A receptor (HTR5A). [Related pubchem assays (depositor defined):AID504326, AID504355, AID504692, AID504904, AID504905]; type: functional
[27] = tested on: H9c2; test: cells; type: functional, cell-based; details: Rattus norvegicus, H9c2, Myocardium;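 also: confirmatory concentration-response retest of ultra-high-throughput screening hits for modulation of myocardial damage; cell death induced by hydrogen peroxide oxidative stress; compound pretreatment for 60 min then peroxide exposure for 2 h; potency is for protecting the cells against peroxide damage rather than for killing them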
[28] = tested on: Vero; test: viability loss in Vero cells – cell-based, plate reader, cherry-pick samples, cytotoxicity control, dose response (AID 687020); type: functional; details: Chlorocebus sabaeus

T5 sequence (P63165 whole entry): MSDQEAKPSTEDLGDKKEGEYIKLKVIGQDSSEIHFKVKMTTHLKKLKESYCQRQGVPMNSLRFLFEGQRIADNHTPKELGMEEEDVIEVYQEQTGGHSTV
T1 sequence (Q38C91 whole entry): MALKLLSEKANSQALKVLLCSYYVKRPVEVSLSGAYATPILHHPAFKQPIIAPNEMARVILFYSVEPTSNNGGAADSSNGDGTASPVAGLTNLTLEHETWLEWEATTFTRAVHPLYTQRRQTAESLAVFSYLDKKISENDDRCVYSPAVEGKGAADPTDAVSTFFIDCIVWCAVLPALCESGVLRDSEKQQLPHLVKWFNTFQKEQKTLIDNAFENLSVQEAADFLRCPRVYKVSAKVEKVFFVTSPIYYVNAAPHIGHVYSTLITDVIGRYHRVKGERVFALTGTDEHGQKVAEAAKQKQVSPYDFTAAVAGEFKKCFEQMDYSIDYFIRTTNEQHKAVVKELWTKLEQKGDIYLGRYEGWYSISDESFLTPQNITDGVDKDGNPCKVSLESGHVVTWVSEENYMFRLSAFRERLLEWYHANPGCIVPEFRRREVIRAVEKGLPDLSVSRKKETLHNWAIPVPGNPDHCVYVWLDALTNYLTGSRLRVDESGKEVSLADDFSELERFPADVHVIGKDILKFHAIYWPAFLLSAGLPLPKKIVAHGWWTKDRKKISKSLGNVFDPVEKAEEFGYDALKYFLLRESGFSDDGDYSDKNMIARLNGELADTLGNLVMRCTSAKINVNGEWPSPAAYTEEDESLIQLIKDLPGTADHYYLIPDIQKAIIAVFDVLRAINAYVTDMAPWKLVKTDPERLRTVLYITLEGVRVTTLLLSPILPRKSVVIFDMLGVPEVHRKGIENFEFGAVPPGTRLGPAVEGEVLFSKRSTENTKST
Sequence of Botulinum neurotoxin type F (P30996 1-436 limits assumed): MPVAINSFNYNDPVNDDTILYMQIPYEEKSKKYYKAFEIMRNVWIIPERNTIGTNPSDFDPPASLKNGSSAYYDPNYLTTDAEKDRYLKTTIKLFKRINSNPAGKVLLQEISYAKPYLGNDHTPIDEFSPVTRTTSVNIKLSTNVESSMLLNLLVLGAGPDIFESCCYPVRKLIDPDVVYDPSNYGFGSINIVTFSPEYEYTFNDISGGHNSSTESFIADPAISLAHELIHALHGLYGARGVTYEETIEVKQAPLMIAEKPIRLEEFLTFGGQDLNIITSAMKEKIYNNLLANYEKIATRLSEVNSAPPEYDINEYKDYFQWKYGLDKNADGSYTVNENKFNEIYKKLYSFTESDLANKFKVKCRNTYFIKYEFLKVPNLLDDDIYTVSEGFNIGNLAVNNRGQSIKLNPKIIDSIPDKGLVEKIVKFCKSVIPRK
Sequence of Arf-GAP with SH3 domain, ANK repeat and PH domain-containing protein 1 (Q9ULH1 whole entry, the tested form may be a part): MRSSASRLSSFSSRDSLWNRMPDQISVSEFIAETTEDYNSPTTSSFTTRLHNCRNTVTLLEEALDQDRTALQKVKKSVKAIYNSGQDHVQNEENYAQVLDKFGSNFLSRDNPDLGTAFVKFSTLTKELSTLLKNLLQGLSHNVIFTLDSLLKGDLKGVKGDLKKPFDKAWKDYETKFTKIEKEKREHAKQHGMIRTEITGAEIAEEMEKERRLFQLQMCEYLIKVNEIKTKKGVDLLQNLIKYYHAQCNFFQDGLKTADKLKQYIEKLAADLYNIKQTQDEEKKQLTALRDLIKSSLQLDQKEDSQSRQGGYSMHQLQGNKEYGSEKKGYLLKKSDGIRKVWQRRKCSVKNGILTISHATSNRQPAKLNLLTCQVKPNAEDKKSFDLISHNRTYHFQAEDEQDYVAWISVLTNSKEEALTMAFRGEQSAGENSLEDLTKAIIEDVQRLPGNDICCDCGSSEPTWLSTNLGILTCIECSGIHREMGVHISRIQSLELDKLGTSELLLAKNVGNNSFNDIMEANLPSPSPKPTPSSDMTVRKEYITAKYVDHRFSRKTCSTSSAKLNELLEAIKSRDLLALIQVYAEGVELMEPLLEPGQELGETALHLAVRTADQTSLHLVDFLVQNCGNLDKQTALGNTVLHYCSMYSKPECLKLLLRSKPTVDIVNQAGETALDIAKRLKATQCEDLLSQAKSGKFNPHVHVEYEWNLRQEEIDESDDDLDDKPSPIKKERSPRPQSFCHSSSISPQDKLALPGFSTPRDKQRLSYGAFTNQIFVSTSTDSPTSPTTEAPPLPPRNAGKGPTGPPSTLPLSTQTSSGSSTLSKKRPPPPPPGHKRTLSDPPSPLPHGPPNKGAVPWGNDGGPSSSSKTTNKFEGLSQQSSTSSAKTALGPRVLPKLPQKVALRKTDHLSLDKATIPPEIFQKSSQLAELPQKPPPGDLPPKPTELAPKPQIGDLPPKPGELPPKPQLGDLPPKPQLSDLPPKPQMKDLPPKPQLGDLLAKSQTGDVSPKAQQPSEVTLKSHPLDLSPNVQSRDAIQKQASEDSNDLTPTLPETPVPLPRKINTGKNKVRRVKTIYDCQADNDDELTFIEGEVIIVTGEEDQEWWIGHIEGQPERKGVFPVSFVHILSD
Sequence of Delta-type opioid receptor (P41143 whole entry): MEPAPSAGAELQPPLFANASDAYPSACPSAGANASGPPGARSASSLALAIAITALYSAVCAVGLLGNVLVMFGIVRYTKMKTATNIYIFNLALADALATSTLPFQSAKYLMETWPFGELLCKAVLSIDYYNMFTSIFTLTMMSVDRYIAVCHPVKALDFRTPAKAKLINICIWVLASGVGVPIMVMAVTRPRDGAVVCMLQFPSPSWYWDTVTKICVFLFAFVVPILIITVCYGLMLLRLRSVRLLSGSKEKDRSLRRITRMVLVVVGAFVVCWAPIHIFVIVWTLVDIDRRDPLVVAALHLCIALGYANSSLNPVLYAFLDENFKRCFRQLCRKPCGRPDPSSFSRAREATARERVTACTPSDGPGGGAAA
Sequence of ADP-ribosylation factor GTPase-activating protein 1 (Q62848 whole entry): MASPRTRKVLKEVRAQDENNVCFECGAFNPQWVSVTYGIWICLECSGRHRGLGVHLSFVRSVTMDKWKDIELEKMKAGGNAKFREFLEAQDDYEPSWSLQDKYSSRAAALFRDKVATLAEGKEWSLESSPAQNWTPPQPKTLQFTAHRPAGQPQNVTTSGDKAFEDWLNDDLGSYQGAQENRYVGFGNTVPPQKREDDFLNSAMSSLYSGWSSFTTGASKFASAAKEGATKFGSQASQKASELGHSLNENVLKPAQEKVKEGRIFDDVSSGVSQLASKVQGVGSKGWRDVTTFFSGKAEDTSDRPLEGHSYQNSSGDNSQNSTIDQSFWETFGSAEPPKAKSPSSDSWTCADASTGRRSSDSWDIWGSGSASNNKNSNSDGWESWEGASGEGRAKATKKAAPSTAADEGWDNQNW
Sequence of Phospholipase A2 (P04054 whole entry): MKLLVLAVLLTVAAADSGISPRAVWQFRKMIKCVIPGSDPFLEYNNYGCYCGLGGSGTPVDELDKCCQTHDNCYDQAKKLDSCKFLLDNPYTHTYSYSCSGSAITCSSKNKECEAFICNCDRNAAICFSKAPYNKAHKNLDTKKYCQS
Sequence of Mu-type opioid receptor (P35372 whole entry): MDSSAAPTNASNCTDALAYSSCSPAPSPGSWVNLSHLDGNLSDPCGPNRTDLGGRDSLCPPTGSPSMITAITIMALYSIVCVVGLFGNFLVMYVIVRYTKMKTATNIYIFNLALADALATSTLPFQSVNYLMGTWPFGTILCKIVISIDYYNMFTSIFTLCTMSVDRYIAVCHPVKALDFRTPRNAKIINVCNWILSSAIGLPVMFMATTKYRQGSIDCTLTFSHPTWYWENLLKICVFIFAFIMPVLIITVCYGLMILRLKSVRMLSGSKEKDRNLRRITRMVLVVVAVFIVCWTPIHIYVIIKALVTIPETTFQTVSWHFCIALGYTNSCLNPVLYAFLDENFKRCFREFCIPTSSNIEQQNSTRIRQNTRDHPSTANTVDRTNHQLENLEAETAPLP
Sequence of 5-hydroxytryptamine receptor 5A (P47898 whole entry): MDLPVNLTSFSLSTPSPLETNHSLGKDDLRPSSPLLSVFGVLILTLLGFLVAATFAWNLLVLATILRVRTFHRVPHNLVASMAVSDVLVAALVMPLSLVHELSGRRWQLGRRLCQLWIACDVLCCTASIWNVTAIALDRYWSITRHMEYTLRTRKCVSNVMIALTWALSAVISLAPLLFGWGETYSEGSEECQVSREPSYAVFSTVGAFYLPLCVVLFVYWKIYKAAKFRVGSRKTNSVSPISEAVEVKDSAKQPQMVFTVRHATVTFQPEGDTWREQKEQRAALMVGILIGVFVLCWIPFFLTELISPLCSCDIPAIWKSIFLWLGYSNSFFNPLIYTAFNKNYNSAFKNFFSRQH
Sequence of Photoreceptor-specific nuclear receptor (Q9Y5X4 whole entry, the tested form may be a part): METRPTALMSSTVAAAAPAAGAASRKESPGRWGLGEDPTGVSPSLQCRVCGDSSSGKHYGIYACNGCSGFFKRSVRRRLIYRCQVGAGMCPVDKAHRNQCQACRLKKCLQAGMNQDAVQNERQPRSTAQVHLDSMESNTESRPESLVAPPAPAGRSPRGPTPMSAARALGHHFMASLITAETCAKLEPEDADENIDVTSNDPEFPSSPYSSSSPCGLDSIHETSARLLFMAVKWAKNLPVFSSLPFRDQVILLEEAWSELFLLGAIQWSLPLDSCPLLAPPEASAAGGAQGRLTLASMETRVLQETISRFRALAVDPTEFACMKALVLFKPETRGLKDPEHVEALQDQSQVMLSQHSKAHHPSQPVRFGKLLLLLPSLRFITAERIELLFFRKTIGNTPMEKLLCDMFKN

## Cc1cnc(NC(=O)CN2CCN(c3ccccn3)CC2)s1
[1]
  AC50: 6.06 µM (active)
[2]
  EC50: > 91.2 µM (inactive)
[3]
  AC50: > 52 µM (inactive)
[4]
  IC50: 1.17 µM (active)
[5]
  EC50: > 91.2 µM (inactive)

## S=C(NCCSCc1ccc(Cl)c(Cl)c1)Nc1ccccc1
[6]
  IC50: 11.6 µM (inactive)
[7]
  EC50: 11.2 µM (active)
[8]
  EC50: > 260 µM (inactive)
[9]
  IC50: 6.67 µM (active)
[10]
  IC50: 11.1 µM (inactive)
[11]
  IC50: 47.9 µM (inactive)
[12]
  EC50: 14.4 µM (active)
[13]
  EC50: > 150 µM (not active)
[14]
  IC50: 3.24 µM (active)

## Cc1cccc2c1NC1(CCCC1)CC2C (stereo not drawn)
[15]
  CC50: 24.6 µM (active)
[16]
  IC50: > 100 µM (active)
[17]
  EC50: > 20 µM (inactive)

## CC(=O)Nc1ccc(C(=O)Nc2nc(-c3cccnc3)cs2)cc1
[18]
  IC50: 31.1 µM (inactive)
[19]
  IC50: > 66.6 µM (inactive)
[20]
  IC50: 36.6 µM (inactive)
[21]
  IC50: 12.1 µM (active)

## CCOC(=O)C1(CCc2ccccc2)CCN(Cc2ccc(NC(C)=O)cc2)CC1
[22]
  CC50: > 10 µM (inactive)
[23]
  EC50: 24.3 µM (inactive)
[24]
  EC50: 0.0267 µM (active)
[25]
  EC50: 4.5 µM (active)
[26]
  EC50: > 92.5 µM (inactive)

## COc1ccc(N(CC(=O)NCCSc2ccccc2)S(=O)(=O)c2ccccc2)c(OC)c1
[27]
  IC50: 10.8 µM (active)
[28]
  AC50: 38.4 µM (active)
